Reference: PMC9942807, “Structure–function correlates of fibrinogen binding by Acinetobacter adhesins critical in catheter-associated urinary tract infections” (Proceedings of the National Academy of Sciences of the …, 2023)

Legend:
Abp1DRBD [1] = biological target: T1, Abp1DRBD (Acinetobacter baumannii, UniProt A0A219C937); test: glycan microarray (CFG v5.[…]), biotinylated protein; type: binding; conditions: protein 50 μg/mL; glycan immobilised through spacer; labelled protein
T1 construct: gene fimA_2

Abp2DRBD = biological target: T2, Abp2DRBD (Acinetobacter baumannii, UniProt A0A7U3Y091); test: glycan microarray (CFG v5.[…]), biotinylated protein; type: binding; conditions: protein 50 μg/mL; glycan immobilised through spacer; labelled protein
T2 construct: gene ACICU_01810

[2] = biological target: bovine submaxillary mucin (BSM); test: BLI; conditions: parent: est. 0.65; read off a plot
[3] = biological target: bovine submaxillary mucin (BSM) (bovine); test: BLI; biotinylated BSM loaded on streptavidin pins; Abp2DRBD constructs at 2.07 µM in 1× PBS + 2% BSA + 0.05% Tween-20; 300 s association, 300 s dissociation; end time point of association compared
Abp1DRBD [4] = biological target: T1, Abp1DRBD; test: glycan microarray (CFG v5.[…]), biotinylated protein; type: binding; conditions: protein 50 μg/mL; glycan immobilised through spacer; labelled protein; remark: listed apart in the source

Substance	Abp1DRBD / Average RFU (Abp1DRBD [1])	Abp2DRBD / Average RFU (Abp2DRBD)	other results
Galb1-4(Fuca1-3)GlcNAcb1-2Mana1-6(Galb1-4(Fuca1-3)GlcNAcb1-2Mana1-3)Manb1-4GlcNAcb1-4(Fuca1-6)GlcNAcb-Sp22 [compound 412]	2,932 ± 266 RFU	48,357 ± 11,791 RFU	
GlcNAcb1-3Galb1-4GlcNAcb1-3Galb1-4GlcNAcb1-2Mana1-6(GlcNAcb1-3Galb1-4GlcNAcb1-3Galb1-4GlcNAcb1-2Mana1-3)Manb1-4GlcNAcb1-4GlcNAcb-Sp12 [compound 535]	4,735 ± 602 RFU	34,056 ± 4,827 RFU	
Neu5Aca2-3Galb1-4GlcNAcb1-2Mana-Sp0 [compound 470]	6,747 ± 133 RFU	53,822 ± 4,116 RFU	
Neu5Aca2-6Galb1-4GlcNAcb1-6GalNAca-Sp14 [compound 472]	4,714 ± 450 RFU	54,517 ± 1,322 RFU	
Abp2D receptor-binding domain from ACICU (Abp2DRBD), wild type R86A			response [2]: 0.66 nm
Galb1-3GlcNAcb1-3Galb1-3GlcNAcb-Sp0 [compound 285]	3,392 ± 319 RFU	28,674 ± 4,137 RFU	
GlcNAcb1-3Galb1-4GlcNAcb1-6(GlcNAcb1-3Galb1-4GlcNAcb1-2)Mana1-6(GlcNAcb1-3Galb1-4GlcNAcb1-2Man a1-3)Manb1-4GlcNAcb1-4GlcNAc-Sp24 [compound 545]	3,159 ± 350 RFU	39,436 ± 6,368 RFU	
Fuca1-2Galb1-4(Fuca1-3)GlcNAcb1-2Mana1-6(Fuca1-2Galb1-4(Fuca1-3)GlcNAcb1-2Mana1-3)Manb1-4GlcNAcb1-4GlcNAb-Sp20 [compound 356]	2,867 ± 192 RFU	58,018 ± 2,343 RFU	
Abp2D receptor-binding domain (ACICU) R102A (domain or fragment)			percent reduction of binding relative to Abp2DRBD WT [3]: 70%
Neu5Aca2-3Galb1-4GlcNAcb1-3Galb1-4GlcNAcb1-3Galb1-4GlcNAcb1-2Mana1-6(Neu5Aca2-3Galb1-4GlcNAcb1-3Galb1-4GlcNAcb1-3Galb1-4GlcNAcb1-2Mana1-3)Manb1-4GlcNAcb1-4GlcNAcb-Sp12 [compound 582]			Abp1DRBD / SD (Abp1DRBD [4]): 9,786 ± 418 RFU
Fuca1-2Galb1-4(Fuca1-3)GlcNAcb1-2Mana1-6(Fuca1-2Galb1-4(Fuca1-3)GlcNAcb1-4(Fuca1-2Galb1-4(Fuca1-3)GlcNAcb1-2)Mana1-3)Manb1-4GlcNAcb1-4GlcNAcb-Sp12 [compound 439]	3,373 ± 55 RFU	30,667 ± 511 RFU	
Abp2D receptor-binding domain (ACICU) Y141A (domain or fragment)			percent reduction of binding relative to Abp2DRBD WT [3]: 90%
Abp2D receptor-binding domain from ACICU (Abp2DRBD), wild type R86E			response [2]: 0.02 nm
GlcNAcb1-3Galb1-4GlcNAcb1-2Mana1-6(GlcNAcb1-3Galb1-4GlcNAcb1-2Mana1-3)Manb1-4GlcNAcb1-4GlcNAcb-Sp12 [compound 531]	6,977 ± 1,001 RFU	59,914 ± 1,963 RFU	
Abp2D receptor-binding domain from ACICU (Abp2DRBD), wild type Y100A			response [2]: 0.46 nm
